Where two headings read alike, the source gives them in different places.
Tests used:
HL-60(TB) = experiment: NCI-60 screening, one-dose (10 µM) and five-dose, SRB; type: cell-based, human; details: Homo sapiens, HL-60, 10 μM; HL-60(TB), Leukemia; read-out: Growth percentage
MOLT-4 = experiment: as above; type: cell-based, human; details: Homo sapiens; 10 μM; MOLT-4, Leukemia; read-out: Growth percentage
RPMI-8226 = experiment: as above; type: cell-based, human; details: Homo sapiens, RPMI-8226, 10 μM; RPMI-8226, Leukemia; read-out: Growth percentage
SR = experiment: as above; type: cell-based, human; details: 10 μM, Leukemia
A549/ATCC = experiment: as above; type: cell-based, human; details: Homo sapiens, 10 μM, Non-Small-Cell Lung Cancer, read-out: Growth percentage
HOP-62 = experiment: as above; type: cell-based, human; details: Homo sapiens, HOP-62, 10 μM; HOP-62, Non-Small-Cell Lung Cancer; read-out: Growth percentage
NCI-H23 = experiment: as above; type: cell-based, human; details: Homo sapiens; 10 μM; NCI-H23, Non-Small-Cell Lung Cancer; read-out: Growth percentage
NCI-H460 = experiment: as above; type: cell-based, human; details: Homo sapiens, NCI-H460, 10 μM; NCI-H460, Non-Small-Cell Lung Cancer; read-out: Growth percentage
HCT-116 = experiment: as above; type: cell-based, human; details: Homo sapiens; for activity at 10 µM: HCT-116, 10 μM, HCT-116, Colon Cancer, read-out: Growth percentage
HT29 = experiment: as above; type: cell-based, human; details: Homo sapiens, HT-29; 10 μM; HT29, Colon Cancer; read-out: Growth percentage
SW-620 = experiment: as above; type: cell-based, human; details: Homo sapiens; 10 μM; SW-620, Colon Cancer; read-out: Growth percentage
U251 = experiment: as above; type: cell-based, human; details: Homo sapiens, U-251; 10 μM; U251, CNS Cancer; read-out: Growth percentage
M14 = experiment: as above; type: cell-based, human; details: Homo sapiens; 10 μM; M14, Melanoma; read-out: Growth percentage
UACC-257 = experiment: as above; type: cell-based, human; details: Homo sapiens; 10 μM; UACC-257, Melanoma; read-out: Growth percentage
UACC-62 = experiment: as above; type: cell-based; details: Homo sapiens
OVCAR-8 = experiment: as above; type: cell-based, human; details: Homo sapiens; 10 μM; OVCAR-8, Ovarian Cancer; read-out: Growth percentage
NCI/ADR-RES = experiment: as above; type: cell-based, human; details: Homo sapiens, 10 μM, Ovarian Cancer, read-out: Growth percentage
SK-OV-3 = experiment: as above; type: cell-based, human; details: Homo sapiens; 10 μM; SK-OV-3, Ovarian Cancer; read-out: Growth percentage
786−0 = experiment: as above; type: cell-based, human; details: Homo sapiens; 10 μM; 786−0, Renal Cancer; read-out: Growth percentage
RXF 393 = experiment: as above; type: cell-based; details: Homo sapiens
SN12C = experiment: as above; type: cell-based, human; details: Homo sapiens, 10 μM, Renal Cancer, read-out: Growth percentage
PC-3 = experiment: as above; type: cell-based, human; details: Homo sapiens; 10 μM; PC-3, Prostate Cancer; read-out: Growth percentage
MCF7 = experiment: as above; type: cell-based, human; details: Homo sapiens, MCF7, 10 μM; MCF7, Breast Cancer; read-out: Growth percentage
T-47D = experiment: as above; type: cell-based, human; details: 10 μM, Breast Cancer
MDA-MB-468 = experiment: as above; type: cell-based, human; details: Homo sapiens, MDA-MB-468, 10 μM; MDA-MB-468, Breast Cancer; read-out: Growth percentage
Text: Control cells Test cells FLD
available usually at NCI library.
An aliquot of frozen drug concentrate is […]

[1] = test system: 60 human cancer cell lines; experiment: NCI-60 screening, full panel (mean growth, MID a, ranges over all lines); details: Homo sapiens, read-out: Mean growth percentage
[2] = 10 μM, UACC-62, Melanoma, read-out: Growth percentage
[3] = 10 μM, RXF 393, Renal Cancer, read-out: Growth percentage

Cc1nc(SCC(=O)N2CCN(c3cc4c(cc3F)c(=O)c(C(=O)O)cn4C3CC3)CC2)sc1C(=O)/C=C/c1ccc(Cl)cc1 [Compound 4c, (E)-7-(4-(2-((5-(3-(4-Chlorophenyl)acryloyl)-4-methylthiazol-2-yl)thio)acetyl)piperazin-1-yl)-1-cyclopropyl-6-fluoro-4-oxo-1,4-dihydroquinoline-3-carboxylic Acid]
activity at 10 µM (HL-60(TB)): 92.9%
activity at 10 µM (MOLT-4): 103%
activity at 10 µM (RPMI-8226): 7.7%
Growth percentage (SR): 35.32%
activity at 10 µM (A549/ATCC): 115%
activity at 10 µM (HOP-62): 122%
activity at 10 µM (NCI-H23): 96.5%
activity at 10 µM (NCI-H460): 106%
activity at 10 µM (HCT-116): 61%
IC50 (HCT-116; colon HCT-116): 340 nM
activity at 10 µM (HT29): 108%
activity at 10 µM (SW-620): 113%
activity at 10 µM (U251): 111%
activity at 10 µM (M14): 98.7%
activity at 10 µM (UACC-257): 117%
activity at 10 µM (UACC-62; [2]): 94.9%
activity at 10 µM (OVCAR-8): 76.3%
activity at 10 µM (NCI/ADR-RES): 98.9%
activity at 10 µM (SK-OV-3): 129%
activity at 10 µM (786−0): 96.2%
activity at 10 µM (RXF 393; [3]): 109%
activity at 10 µM (SN12C): 96.7%
activity at 10 µM (PC-3): 100%
activity at 10 µM (MCF7): 52.9%
Growth percentage (T-47D): 116.3%
activity at 10 µM (MDA-MB-468): 110%
activity at 10 µM [1]: 103%

Cc1nc(SCC(=O)N2CCN(c3cc4c(cc3F)c(=O)c(C(=O)O)cn4C3CC3)CC2)sc1C(=O)/C=C/c1ccc(F)cc1 [Compound 4e, (E)-1-Cyclopropyl-6-fluoro-7-(4-(2-((5-(3-(4-fluorophenyl)acryloyl)-4-methylthiazol-2-yl)thio)acetyl)piperazin-1-yl)-4-oxo-1,4-dihydroquinoline-3-carboxylic Acid]
activity at 10 µM (HL-60(TB)): 107%
activity at 10 µM (MOLT-4): 105%
activity at 10 µM (RPMI-8226): 29.1%
Growth percentage (SR): 55.6%
activity at 10 µM (A549/ATCC): 104%
activity at 10 µM (HOP-62): 108%
activity at 10 µM (NCI-H23): 101%
activity at 10 µM (NCI-H460): 108%
activity at 10 µM (HCT-116): 51.2%
activity at 10 µM (HT29): 115%
activity at 10 µM (SW-620): 126%
activity at 10 µM (U251): 114%
activity at 10 µM (M14): 97.8%
activity at 10 µM (UACC-257): 106%
activity at 10 µM (UACC-62; [2]): 99.6%
activity at 10 µM (OVCAR-8): 105%
activity at 10 µM (NCI/ADR-RES): 104%
activity at 10 µM (SK-OV-3): 114%
activity at 10 µM (786−0): 88.3%
activity at 10 µM (RXF 393; [3]): 95.9%
activity at 10 µM (SN12C): 99.5%
activity at 10 µM (PC-3): 96.6%
activity at 10 µM (MCF7): 70.6%
Growth percentage (T-47D): 95.6%
activity at 10 µM (MDA-MB-468): 106%
activity at 10 µM [1]: 100%

Cc1nc(SCC(=O)N2CCN(c3cc4c(cc3F)c(=O)c(C(=O)O)cn4C3CC3)CC2)sc1C(=O)/C=C/c1ccc(Br)cc1 [Compound 4f, (E)-7-(4-(2-((5-(3-(4-Bromophenyl)acryloyl)-4-methylthiazol-2-yl)thio)acetyl)piperazin-1-yl)-1-cyclopropyl-6-fluoro-4-oxo-1,4-dihydroquinoline-3-carboxylic Acid]
activity at 10 µM (HL-60(TB)): 83.3%
activity at 10 µM (MOLT-4): 96.2%
activity at 10 µM (RPMI-8226): 31.5%
Growth percentage (SR): 56.5%
activity at 10 µM (A549/ATCC): 107%
activity at 10 µM (HOP-62): 94.3%
activity at 10 µM (NCI-H23): 102%
activity at 10 µM (NCI-H460): 107%
activity at 10 µM (HCT-116): 94.3%
activity at 10 µM (HT29): 117%
activity at 10 µM (SW-620): 116%
activity at 10 µM (U251): 98.4%
activity at 10 µM (M14): 108%
activity at 10 µM (UACC-257): 118%
activity at 10 µM (UACC-62; [2]): 105%
activity at 10 µM (OVCAR-8): 75%
activity at 10 µM (NCI/ADR-RES): 107%
activity at 10 µM (SK-OV-3): 110%
activity at 10 µM (786−0): 93.6%
activity at 10 µM (RXF 393; RXF 393, read-out: Growth percentage): 107%
activity at 10 µM (SN12C): 101%
activity at 10 µM (PC-3): 102%
activity at 10 µM (MCF7): 70.8%
Growth percentage (T-47D): 89.3%
activity at 10 µM (MDA-MB-468): 109%
activity at 10 µM [1]: 102%

Cc1nc(SCC(=O)N2CCN(c3cc4c(cc3F)c(=O)c(C(=O)O)cn4C3CC3)CC2)sc1C(=O)/C=C/c1cccc([N+](=O)[O-])c1 [Compound 4g, (E)-1-Cyclopropyl-6-fluoro-7-(4-(2-((4-methyl-5-(3-(3-nitrophenyl)acryloyl)thiazol-2-yl)thio)acetyl)piperazin-1-yl)-4-oxo-1,4-dihydroquinoline-3-carboxylic Acid]
activity at 10 µM (HL-60(TB)): 80.5%
activity at 10 µM (MOLT-4): 86.4%
activity at 10 µM (RPMI-8226): 9.9%
Growth percentage (SR): 11.6%
activity at 10 µM (A549/ATCC): 90.3%
activity at 10 µM (HOP-62): 94.5%
activity at 10 µM (NCI-H23): 87.8%
activity at 10 µM (NCI-H460): 106%
activity at 10 µM (HCT-116): -73.5%
activity at 10 µM (HT29): 37.2%
activity at 10 µM (SW-620): 69.8%
activity at 10 µM (U251): 50.7%
activity at 10 µM (M14): 83.3%
activity at 10 µM (UACC-257): 99.8%
activity at 10 µM (UACC-62; UACC-62, read-out: Growth percentage): 71.9%
activity at 10 µM (OVCAR-8): 69.2%
activity at 10 µM (NCI/ADR-RES): 102%
activity at 10 µM (SK-OV-3): 121%
activity at 10 µM (786−0): 71.2%
activity at 10 µM (RXF 393; [3]): 92.9%
activity at 10 µM (SN12C): 65.4%
activity at 10 µM (PC-3): 112%
activity at 10 µM (MCF7): 11.6%
Growth percentage (T-47D): 84.1%
activity at 10 µM (MDA-MB-468): 92.8%
activity at 10 µM [1]: 80%

Cc1nc(SCC(=O)N2CCN(c3cc4c(cc3F)c(=O)c(C(=O)O)cn4C3CC3)CC2)sc1C(=O)/C=C/c1ccc([N+](=O)[O-])cc1 [Compound 4h, (E)-1-Cyclopropyl-6-fluoro-7-(4-(2-((4-methyl-5-(3-(4-nitrophenyl)acryloyl)thiazol-2-yl)thio)acetyl)piperazin-1-yl)-4-oxo-1,4-dihydroquinoline-3-carboxylic Acid]
activity at 10 µM (HL-60(TB)): 80.9%
activity at 10 µM (MOLT-4): 62.7%
activity at 10 µM (RPMI-8226): 16.3%
Growth percentage (SR): 23.8%
activity at 10 µM (A549/ATCC): 99.7%
activity at 10 µM (HOP-62): 88.3%
activity at 10 µM (NCI-H23): 73.2%
activity at 10 µM (NCI-H460): 99.4%
activity at 10 µM (HCT-116): 33.8%
activity at 10 µM (HT29): 76.1%
activity at 10 µM (SW-620): 78.2%
activity at 10 µM (U251): 59.9%
activity at 10 µM (M14): 70.5%
activity at 10 µM (UACC-257): 82.6%
activity at 10 µM (UACC-62; [2]): 59%
activity at 10 µM (OVCAR-8): 68.9%
activity at 10 µM (NCI/ADR-RES): 88.8%
activity at 10 µM (SK-OV-3): 119%
activity at 10 µM (786−0): 87.6%
activity at 10 µM (RXF 393; [3]): 89.5%
activity at 10 µM (SN12C): 78.3%
activity at 10 µM (PC-3): 85.9%
activity at 10 µM (MCF7): 7.2%
Growth percentage (T-47D): 64.1%
activity at 10 µM (MDA-MB-468): 85.2%
activity at 10 µM [1]: 77.6%
